The values that follow come from BindingDB's records for patent US8507533 (Pfizer, 2013).

Where “and” joins values, the source holds several entries; their conditions need not be identical. Equal entries are not always repeated.

The target in the assay is Glucagon receptor (Homo sapiens, UniProt P47871). The experiment in a line: Glucagon SPA Assay. Conditions: pH 7.4. The source says: The Glucagon SPA assay is used to determine the ability of test compounds to block the binding of glucagon-cex to the glucagon receptors.
Glucagon receptor, sequence (P47871 whole entry): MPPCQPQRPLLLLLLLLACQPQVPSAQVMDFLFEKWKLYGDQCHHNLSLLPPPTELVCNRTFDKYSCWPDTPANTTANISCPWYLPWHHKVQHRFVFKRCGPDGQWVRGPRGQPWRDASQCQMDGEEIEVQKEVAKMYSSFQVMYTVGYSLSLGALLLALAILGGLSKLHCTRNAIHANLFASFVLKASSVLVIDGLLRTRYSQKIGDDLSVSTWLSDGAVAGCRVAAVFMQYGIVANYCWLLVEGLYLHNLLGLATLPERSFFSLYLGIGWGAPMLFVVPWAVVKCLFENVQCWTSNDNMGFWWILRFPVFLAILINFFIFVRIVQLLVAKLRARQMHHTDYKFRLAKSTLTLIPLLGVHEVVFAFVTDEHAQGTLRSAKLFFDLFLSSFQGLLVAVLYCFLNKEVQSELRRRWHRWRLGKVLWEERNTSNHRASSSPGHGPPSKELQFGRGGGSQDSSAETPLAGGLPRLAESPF

For orientation: Ki means a measure of affinity in units of concentration, obtained from inhibition or displacement. A higher Ki goes with weaker binding. Take `Cc1cc(-n2cc(C(F)(F)F)cn2)ccc1C(Nc1ccc(C(=O)NCCC(=O)O)cn1)C1CCCCC1` (single isomer, unassigned) [US8507533, 337]: the inhibition constant (Ki) is 183 nM and 297 nM. The compound `CCCC(Oc1ccc(-n2cc(-c3ccccc3)cn2)nc1)c1ccc(C(=O)NCCC(=O)O)cc1` (configuration not stated) [US8507533, 133] had an inhibitory constant (Ki) of 58 nM.
